{
  "source": "patent US11000537B2",
  "about": "“Composition comprising novel ginsenoside” (AMOREPACIFIC CORPORATION, priority 2018, dated 2021)",
  "key": {"3T1-L1 adipocytes [1]": {"test_system": "3T1-L1 adipocytes", "experiment": "glucose uptake (glucose transport) in differentiated adipocytes", "type": "cell-based", "conditions": "10 μM, FIG. 13", "experimental": "3T1-L1 adipocytes (ATCC) were purchased, and 10% bovine calf serum (Hyclone) and 1% penicillin/streptomycin (Sigma) were added to a Dulbecco's Modified Eagle's Medium (Sigma) and cultured in a 5% CO2 culture medium. In order to differentiate preadipocyte cells into adipocytes, a culture plate was filled with cells and cultured for 48 hours. The cells were then replaced in a DMEM medium to which 10% fetal bovine serum (FBS) (Hyclone), 0.5 mM 3-isobutyl-1-methylxanthine (Sigma), 1 μM dexamethasone (Sigma), 5 μg/ml insulin (Sigma), and 1% penicillin/streptomycin were added and cultured for another 48 hours. Thereafter, the cells were further cultured for 14 days while being replaced in a medium containing 10% FBS, 5 μg/ml insulin, and 1% penicillin/streptomycin at two-day intervals to obtain fully differentiated adipocytes. […] As a positive control for measuring glucose uptake in blood, Metformin (Sigma; 10 μM), which is used as a diabetic therapeutic agent, was used, and novel ginsenoside GS #10, which is an example of the present disclosure, isolated from Ginseng seed extract and ginsenosides GS #01-GS #06, which are comparative examples of the present disclosure, were treated with 10 μM each. In addition, both insulin-dependent/independent glucose transport capacity was measured by treating insulin together, which may promote glucose uptake."}, "[2]": {"test_system": "human umbilical vein endothelial cells (HUVECs)", "experiment": "survival rate of vascular endothelial cells (MTT)", "type": "cell-based", "experimental": "In this experiment, it was confirmed whether the novel ginsenoside GS #10 of an embodiment of the present disclosure can increase the survival rate of vascular endothelial cells. Specifically, human umbilical vein endothelial cells (HUVECs) were purchased from the International Center for Biological Resources (ATCC) and cultured, and then the novel ginsenoside GS #10 was treated at a concentration of 1-10 μg/ml and MTT(3-(4,5-dimethylthiazol-2-yl)-2,5-diphenyltetrazolium bromide) analysis was performed to observe cell death."}, "3T1-L1 adipocytes [3]": {"test_system": "3T1-L1 adipocytes", "experiment": "glucose uptake (glucose transport) in differentiated adipocytes", "type": "cell-based", "conditions": "1, 10 μM; compared with ginsenosides Rg1, Rg3, Rb1; FIG. 16"}, "[4]": {"test_system": "human umbilical vein endothelial cells (HUVEC)", "experiment": "nitric oxide (NO) production in vascular endothelial cells", "type": "cell-based", "from_the_text": "Since nitric oxide is made by […] nitric oxide synthase (eNOS), in this experiment, it was confirmed whether the novel ginsenoside GS #10 of the example of the present disclosure can promote the production of nitric oxide through eNOS activity control in vascular endothelial cells. Specifically, the human umbilical vein endothelial cells (HUVEC) were purchased from the International Center for Biological Resources (ATCC) and cultured, and then the amount of nitric oxide (NO) produced by treating the novel ginsenoside GS #10 at a concentration of 1 to 10 μg/ml was measured."}, "α-glucosidase": {"test_system": "α-glucosidase", "experiment": "α-glucosidase enzyme activity inhibition", "type": "biochemical", "experimental": "(§1) As a polysaccharide degrading enzyme, pancreatic α-amylase and α-glucosidase were purchased from Sigma, and the enzyme activity of novel ginsenoside GS #10, which is an example of the present disclosure, isolated from Ginseng seed extract and ginsenosides GS #01-GS #06, which are comparative examples of the present disclosure, was measured. In order to measure α-amylase activity, enzyme solution was prepared by dissolving BSA 0.1 g, 0.01 g/L NaN3, α-amylase 0.2857 g in 50 mL of PBS (phosphate buffered saline), and 5 mM of p-nitrophenyl-α-D-maltopentoglycoside was dissolved in another PBS to make a substrate solution. 0.1 mL of the test substance was added to 0.5 mL of the enzyme solution, and then the initial absorbance was measured at 405 nm. After adding 0.5 mL of the substrate solution and reacting it for 5 minutes, the absorbance was measured again. The change in enzyme activity was measured by the difference in absorbance between the two reactions. The method for measuring α-glucosidase activity is the same as the method for measuring α-amylase activity, and differs only in α-glucosidase and substrate (p-nitrophenyl-α-D-glucopyranoside). As a positive control to observe the inhibition of enzyme activity, acarbose, which is an α-amylase inhibitor and α-glucosidase inhibitor derived from wheat seed sold by Sigma, was used."}, "pancreatic α-amylase": {"biological_target": "T1, pancreatic α-amylase (Sus scrofa, UniProt P00690)", "T1 construct": "purchased Sigma", "T1 sequence (P00690 16-511)": "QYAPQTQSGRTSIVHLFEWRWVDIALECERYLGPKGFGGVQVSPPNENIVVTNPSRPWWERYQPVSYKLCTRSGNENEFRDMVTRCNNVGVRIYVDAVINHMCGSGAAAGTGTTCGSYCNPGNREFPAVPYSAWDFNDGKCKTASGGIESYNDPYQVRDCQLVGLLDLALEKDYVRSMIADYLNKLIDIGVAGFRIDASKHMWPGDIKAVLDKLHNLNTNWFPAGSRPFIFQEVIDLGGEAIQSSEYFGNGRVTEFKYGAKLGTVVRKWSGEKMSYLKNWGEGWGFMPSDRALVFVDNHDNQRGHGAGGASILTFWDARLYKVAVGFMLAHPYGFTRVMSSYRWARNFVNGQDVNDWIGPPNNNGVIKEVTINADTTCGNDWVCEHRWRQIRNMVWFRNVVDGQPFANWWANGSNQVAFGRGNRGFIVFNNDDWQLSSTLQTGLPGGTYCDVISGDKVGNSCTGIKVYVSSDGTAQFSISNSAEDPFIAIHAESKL", "experiment": "α-amylase enzyme activity inhibition", "type": "biochemical", "experimental": "as §1"}, "[5]": {"test_system": "FAS (Fatty acid synthase)", "experiment": "FAS gene expression in HepG2 (qPCR)", "type": "cell-based", "conditions": "24 hours", "experimental": "The hepatocyte cell line HepG2 purchased from the International Center for Biological Resources (ATCC) were placed in Dulbecco's Modified Eagle's Medium (Sigma) to which 10% fetal bovine serum (Hyclone) and 1% penicillin/streptomycin (Sigma) were added, and cultured in a 5% CO2 incubator. […] After 24 hours of treatment, cells were collected, RNA was extracted using Trizol™ reagent (Thermo Fisher Scientific), and cDNA was synthesized using RevertAid™ 1st strand cDNA synthesis kit (Thermo Fisher Scientific). Bio-Rad's CFX96 real-time quantitative PCR (qPCR) instrument was used to observe the expression of the genes SREBP1c (sterol-regulatory element binding protein 1c), ACC (acetyl-CoA carboxylase) and FAS (Fatty acid synthase), which induces fat synthesis or accumulation."}, "[6]": {"test_system": "HMG-CoA (3-hydroxy-3-methyl-glutaryl-coenzyme A) reductase", "experiment": "HMG-CoA reductase gene expression in HepG2 (qPCR)", "type": "cell-based", "conditions": "24 hours"}},
  "data": [
    {"smiles": "CC1(C)C(=O)CC[C@@]2(C)C1[C@@H](O[C@H]1OC(CO)[C@H](O)C(O)C1O[C@H]1OC(CO)[C@H](O)C(O)C1O)C[C@]1(C)C2C[C@@H](O)C2C([C@]3(C)CC[C@H](C(C)(C)O)O3)CC[C@]21C", "note": "(stereo partly drawn) [GS #10, (20S,24R)-6-O-β-D-glucopyranosyl(1→2)-β-D-glucopyranoside-dammar-3-one-20,24-epoxy-6a,12b,25-triol]", "values": [
      {"measurement": "glucose transport promotion", "setting": "3T1-L1 adipocytes [1]; combined with insulin (+insulin)", "result": "the glucose transport is further increased as compared with the insulin-only treatment group"},
      {"measurement": "glucose transport promotion", "setting": "3T1-L1 adipocytes [1]; material-only treatment (−insulin)", "result": "statistically significant glucose transport promotion"},
      {"measurement": "survival rate-increasing effect of vascular endothelial cells", "setting": "[2]; 10 μg/ml, MTT, compared with GS #01-GS #06, FIG. 45", "result": "highest survival rate-increasing effect of vascular endothelial cells"},
      {"measurement": "increased survival rate of vascular endothelial cells (HUVEC)", "setting": "[2]; 10 μg/ml, compared with Rg1, Rg3, Rb1, FIG. 47", "result": "far superior"},
      {"measurement": "survival rate of HUVEC", "setting": "[2]; 1-10 μg/ml, MTT, FIG. 44", "result": "increase the survival rate of HUVEC regardless of the concentration"},
      {"measurement": "glucose transport ability", "setting": "3T1-L1 adipocytes [3]", "result": "much superior"},
      {"measurement": "NO production efficacy relative to ginsenoside Re (GS #03)", "setting": "[4]; 10 μg/ml, HUVEC, FIG. 43", "result": "≥ 2", "unit": "times"},
      {"measurement": "NO production-increasing effect", "setting": "[4]; 10 μg/ml, HUVEC, compared with GS #01 to GS #06, FIG. 43", "result": "significantly greater NO production-increasing effect"},
      {"measurement": "increased production of nitric oxide (NO)", "setting": "[4]; 10 μg/ml, compared with Rg1, Rg3, Rb1, FIG. 46", "result": "far superior"},
      {"measurement": "nitric oxide (NO) production", "setting": "[4]; 1 to 10 μg/ml, HUVEC, FIG. 42", "result": "increase NO production in a concentration-dependent manner"},
      {"measurement": "α-glucosidase activity inhibitory effect", "setting": "α-glucosidase; 1, 10 μM, compared with ginsenosides Rg1, Rg3, Rb1, FIG. 15", "result": "much superior"},
      {"measurement": "α-glucosidase activity inhibitory effect", "setting": "α-glucosidase; Test Example 1, FIG. 12, ginseng seed ginsenosides compared", "result": "high inhibitory effect on α-glucosidase activity"},
      {"measurement": "α-amylase activity inhibitory effect", "setting": "pancreatic α-amylase; 1, 10 μM, compared with ginsenosides Rg1, Rg3, Rb1, FIG. 14", "result": "much superior"},
      {"measurement": "α-amylase activity inhibitory effect", "setting": "pancreatic α-amylase; Test Example 1, FIG. 11, ginseng seed ginsenosides compared", "result": "most excellent α-amylase activity inhibitory effect"},
      {"measurement": "FAS expression inhibitory effect", "setting": "[5]; 10 μM, HepG2, FIG. 20", "result": "significantly higher expression inhibitory effect"},
      {"measurement": "FAS expression inhibitory effect", "setting": "[5]; 1, 10 μM, compared with Rg1, Rg3, Rb1, FIG. 25", "result": "far superior in lipid metabolism inhibitory effect"},
      {"measurement": "expression of HMG-CoA reductase", "setting": "[6]; 10 μM, HepG2, FIG. 28", "result": "most excellent efficacy of inhibiting the expression"},
      {"measurement": "inhibition of cholesterol synthesis (HMG-CoA reductase expression)", "setting": "[6]; 1 and 10 μM, compared with Rg1, Rg3, Rb1, FIG. 31", "result": "most effective in inhibiting cholesterol synthesis"}
    ]}
  ]
}
